In the Kinase Knowledgebase extract (Sharma et al. 2016):

Target: MAPK14;MAPK11;MAPK12;MAPK13 (human) (UniProt Q16539)
Experiment: Assessment of MAPK11/MAPK12/MAPK13/MAPK14 Kinase Activity

| Structure (SMILES) | IC50 [µM] |
| --- | --- |
| Cc1ccccc1-c1nnc2cc(-c3cc(C(=O)NC4CC4)cc(F)c3C)ccn12 | < 0.025 |
| Cc1ccc(C(=O)NC2CC2)cc1-c1ccn2c(-c3cccc(F)c3Cl)nnc2c1 | < 0.025 |
| Cc1ccc(C(=O)NC2CC2)cc1-c1ccn2c(C(C)C)nnc2c1 | < 0.025 |
| Cc1ccc(C(=O)NC2CC2)cc1-c1ccn2c(CC(C)(C)C)nnc2c1 | < 0.025 |
| Cc1ccc(C(=O)NC2CC2)cc1-c1ccn2c(C3CC3)nnc2c1 | < 0.025 |
| Cc1ccc(C(=O)NC2CC2)cc1-c1cc2nnc(-c3ccccc3Cl)n2cc1C | < 0.025 |
| Cc1c(F)cc(C(=O)NC2CC2)cc1-c1ccn2c(-c3ccncc3Cl)nnc2c1 | < 0.025 |
| Cc1ccc(C(=O)NC2CC2)cc1-c1ccn2c(Cc3ccccc3)nnc2c1 | < 0.025 |
| Cc1ccc(C(=O)NC2CC2)cc1-c1ccn2c(C3CCCCC3)nnc2c1 | < 0.025 |
| Cc1cc(F)c(C(=O)NC2CC2)cc1-c1ccn2c(-c3ccccc3Cl)nnc2c1 | < 0.025 |
| Cc1c(F)cc(C(=O)NC2CC2)cc1-c1ccn2c(C(C)(C)C)nnc2c1 | < 0.025 |
| Cc1ccc(C(=O)NC2CC2)cc1-c1ccn2c(N3CCCCC3)nnc2c1 | < 0.025 |
| Cc1ncoc1-c1nnc2cc(-c3cc(C(=O)NC4CC4)cc(F)c3C)ccn12 | < 0.025 |
| Cc1ccc(C(=O)NC2CC2)cc1-c1ccn2c(C34C[C@H]5C[C@@H](C3)C[C@@H](C4)C5)nnc2c1 | < 0.025 |
| Cc1ccc(C(=O)NC2CC2)cc1-c1ccn2c(-c3c(F)cccc3C(F)(F)F)nnc2c1 | < 0.025 |
| Cc1cccc(F)c1-c1nnc2cc(-c3cc(C(=O)NC4CC4)cc(F)c3C)ccn12 | < 0.025 |
| Cc1c(F)cc(C(=O)NC2CC2)cc1-c1ccn2c(-c3ccccc3Cl)nnc2c1 | < 0.025 |
| Cc1ccc(C(=O)NC2CC2)cc1-c1ccn2c(Nc3ccccc3)nnc2c1 | < 0.025 |

| Structure (SMILES) | IC50 [µM] |
| --- | --- |
| Cc1c(F)cc(C(=O)NC2CC2)cc1-c1ccn2c(-c3ccccc3C(F)(F)F)nnc2c1 | < 0.025 |
| Cc1ccc(C(=O)NC2CC2)cc1-c1ccn2c(C3CCOCC3)nnc2c1 | < 0.025 |
| Cc1ccc(C(=O)NC2CC2)cc1-c1cc(C)n2c(-c3ccccc3Cl)nnc2c1 | < 0.025 |
| Cc1ccc(C(=O)NC2CC2)cc1-c1ccn2c(-c3ccc(S(C)(=O)=O)cc3Cl)nnc2c1 | < 0.025 |
| Cc1c(F)cc(C(=O)Nc2ccon2)cc1-c1ccn2c(-c3c(F)cccc3F)nnc2c1 | < 0.025 |
| Cc1ccc(C(=O)NC2CC2)cc1-c1ccn2c(NC(C)C)nnc2c1 | < 0.025 |
| Cc1ccc(C(=O)NC2CC2)cc1-c1ccn2c(-c3ccccc3C(F)(F)F)nnc2c1 | < 0.025 |
| Cc1ccc(C(=O)NC2CC2)cc1-c1ccn2c(C3(C(F)(F)F)CC3)nnc2c1 | < 0.025 |
| Cc1ccc(C(=O)NC2CC2)cc1-c1ccn2c(C(C)(C)C)nnc2c1 | < 0.025 |
| Cc1c(F)cc(C(=O)NC2CC2)cc1-c1ccn2c(-c3c(F)cccc3Cl)nnc2c1 | < 0.025 |
| Cc1cccc(Cl)c1-c1nnc2cc(-c3cc(C(=O)NC4CC4)cc(F)c3C)ccn12 | < 0.025 |
| Cc1c(F)cc(C(=O)NC2CC2)cc1-c1ccn2c(-c3c(F)cccc3F)nnc2c1 | < 0.025 |
| Cc1ccc(C(=O)NC2CC2)cc1-c1ccn2c(-c3ccc(F)cc3C)ncc2c1 | < 0.025 |
| Cc1ccc(C(=O)NC2CC2)cc1-c1ccn2c(C3CCCC3)nnc2c1 | < 0.025 |
| Cc1ccc(C(=O)NC2CC2)cc1-c1ccn2c(-c3cc(F)c(F)cc3Cl)nnc2c1 | < 0.025 |
| Cc1c(F)cc(C(=O)NC2CC2)cc1-c1ccn2c(-c3c(Cl)cccc3Cl)nnc2c1 | < 0.025 |
| Cc1ccc(C(=O)NC2CC2)cc1-c1ccn2c(N(C)c3ccccc3)nnc2c1 | < 0.025 |
| Cc1ccc(C(=O)NC2CC2)cc1-c1ccn2c(N3CCCC3)nnc2c1 | < 0.025 |

Continued, values first:

| IC50 [µM] | Structure (SMILES) |
| --- | --- |
| < 0.025 | Cc1ccc(C(=O)NC2CC2)cc1-c1ccn2c(-c3sccc3Cl)nnc2c1 |
| < 0.025 | Cc1ccc(C(=O)Nc2ccnn2C)cc1-c1ccn2c(-c3ccccc3Cl)ncc2c1 |
| < 0.025 | Cc1ccc(C(=O)Nc2ccnn2C)cc1-c1ccn2c(-c3ccc(F)cc3C)nnc2c1 |
| < 0.025 | Cc1ccc(C(=O)Nc2ccnn2C)cc1-c1cc2nnc(-c3ccccc3Cl)n2cc1C |
| < 0.025 | Cc1ccc(C(N)=O)cc1-c1ccn2c(-c3ccccc3Cl)nnc2c1 |
| < 0.025 | Cc1ccc(C(=O)NC2CC2)cc1-c1ccn2c(-c3c(Cl)cccc3Cl)nnc2c1 |
| < 0.025 | Cc1ccc(C(=O)Nc2ccnn2C)cc1-c1ccn2c(-c3ccccc3F)nnc2c1 |
| < 0.025 | Cc1ccc(C(=O)NC2CC2)cc1-c1ccn2c(-c3c(C)cccc3F)nnc2c1 |
| < 0.025 | Cc1ccc(C(=O)NC2CC2)cc1-c1ccn2c(-c3ccc(F)cc3C)nnc2c1 |
| < 0.025 | Cc1ccc(C(=O)Nc2ccnn2C)cc1-c1ccn2c(C(C)C)nnc2c1 |
| < 0.025 | Cc1ccc(C(=O)NC2CC2)cc1-c1ccn2c(-c3ccncc3Cl)nnc2c1 |
| < 0.025 | Cc1ccc(C(=O)NC2CC2)cc1-c1ccn2c(-c3cc(F)ccc3Cl)nnc2c1 |
| < 0.025 | Cc1ccc(C(=O)NC2CC2)cc1-c1ccn2c(-c3sccc3C)nnc2c1 |
| < 0.025 | Cc1ccc(C(=O)Nc2ccnn2C)cc1-c1ccn2c(-c3ccc(F)cc3Cl)nnc2c1 |
| < 0.025 | Cc1ccc(C(=O)NC2CC2)cc1-c1ccn2c(-c3ccccc3C)nnc2c1 |
| < 0.025 | CCNC(=O)c1ccc(C)c(-c2ccn3c(-c4ccccc4Cl)nnc3c2)c1 |
| < 0.025 | Cc1ccc(C(=O)NC2CC2)cc1-c1ccn2c(-c3c(F)cccc3Cl)nnc2c1 |
| < 0.025 | CCc1ccccc1-c1nnc2cc(-c3cc(C(=O)NC4CC4)ccc3C)ccn12 |

| IC50 [µM] | Structure (SMILES) |
| --- | --- |
| < 0.025 | Cc1ccc(C(=O)Nc2ccnn2C)cc1-c1ccn2c(-c3cc(F)ccc3Cl)nnc2c1 |
| < 0.025 | Cc1ccc(C(=O)NC2(C)CC2)cc1-c1ccn2c(-c3ccccc3Cl)nnc2c1 |
| < 0.025 | Cc1ccc(C(=O)Nc2ccnn2C)cc1-c1ccn2c(C3(C(F)(F)F)CC3)nnc2c1 |
| < 0.025 | Cc1ccc(C(=O)Nc2ccnn2C)cc1-c1ccn2c(-c3cc(F)c(F)cc3Cl)nnc2c1 |
| < 0.025 | Cc1ccc(C(=O)Nc2ccnn2C)cc1-c1ccn2c(-c3cccc(F)c3Cl)nnc2c1 |
| < 0.025 | Cc1ccc(C(=O)NC2CC2)cc1-c1ccn2c(-c3ccccc3)nnc2c1 |
| < 0.025 | Cc1ccc(C(=O)Nc2ccon2)cc1-c1ccn2c(-c3c(F)cccc3F)nnc2c1 |
| < 0.025 | Cc1ccc(C(=O)NC2CC2)cc1-c1ccn2c(-c3c(C)cccc3Cl)nnc2c1 |
| < 0.025 | Cc1ccc(C(=O)NC2CC2)cc1-c1ccn2c(-c3ccccc3Cl)nnc2c1 |
| < 0.025 | Cc1ccc(C(=O)Nc2ccnn2C)cc1-c1ccn2c(-c3sccc3C)nnc2c1 |
| < 0.025 | Cc1ccc(C(=O)NC2CC2)cc1-c1ccn2c(-c3ccc(F)cc3Cl)nnc2c1 |
| < 0.025 | Cc1ccc(C(=O)Nc2ccnn2C)cc1-c1ccn2c(-c3cnccc3C(F)(F)F)ncc2c1 |
| < 0.025 | Cc1ccc(C(=O)Nc2ccnn2C)cc1-c1ccn2c(-c3ccccc3Cl)nnc2c1 |
| < 0.025 | Cc1ccc(C(=O)Nc2ccnn2C)cc1-c1ccn2c(-c3cc(F)cc(F)c3)ncc2c1 |
| < 0.025 | Cc1ccc(C(=O)Nc2ccnn2C)cc1-c1ccn2c(-c3ccc(F)cc3C)ncc2c1 |
| < 0.025 | COc1ccccc1-c1nnc2cc(-c3cc(C(=O)NC4CC4)ccc3C)ccn12 |
| < 0.025 | Cc1ccc(C(=O)NC2CC2)cc1-c1ccn2c(-c3ccccc3F)nnc2c1 |
